Test results as given in patent publication US20060234922A1, “Remedy for corneal failure” (priority 2002, published 2006).

Columns and labels:
Assay type in all cases: cell-based
[1] = test system: cultured rabbit trigeminal nerve cells; test: Effect of somatostatin receptor agonist on axon extension of cultured rabbit trigeminal nerve cells (neurofilament absorbance at 492 nm, fluorescence microscopy); conditions: 48 hr culture; for absorbance indicating the neurofilament amount of the cells (492 nm): control group 0.798, n=3
From the text: Effect of Somatostatin Receptor Agonist on Axon Extension of Cultured Rabbit Trigeminal Nerve Cell (In Vitro Test)
Japanese White Rabbits (2-3 days old) purchased from KITAYAMA LABES Co., Ltd. were used.
As a somatostatin receptor agonist, which is a test substance, t-butyl 6-amino-2-(3-(1H-indol-3-yl)-2-((4-(2-oxo-2,3-dihydrobenzoimidazol-1-yl)piperidine-1-carbonyl)amino)propionylamino)hexanoate, which is an SSTR2 specific agonist (hereinafter to be referred to as compound 1), and 1-(3-(N-(5-bromopyridin-2-yl)-N-(3,4-dichlorobenzyl)amino)propyl)-3-(3-(1H-imidazol-4-yl)propyl)thiourea (hereinafter to be referred to as compound 2), which is an SSTR4 specific agonist, were used. The compound 1 was a compound of Example 4 and synthesized according to the method of Example 2 of JP-A-2001-519812 (WO98/44922). The compound 2 was synthesized according Example 15 of JP-A-2001-525793 (WO97/43278).
Rabbit trigeminal nerve cells were isolated by reference to the report of Chan et al. (Kuan Y. Chan and Richard H. Haschke. Exp. Eye Res. 41: 687-699, 1985). To be specific, under ether anesthesia, cardiac perfusion with saline was performed and trigeminal ganglia was removed. Using nerve dispersion solution (SUMITOMO BAKELITE Co., Ltd.), trigeminal ganglia was dispersed to prepare trigeminal nerve cells. For cell culture, Neurobasal medium (GIBCO) added with B27 Supplement (GIBCO; final concentration 2% v/v) and L-Glutamine (GIBCO; final concentration 1 mM) was used under the culture conditions of 5% CO2, 95% air, 100% humidity, 37° C., 48 hr. […]
After the completion of 48 hr culture, the cells innoculated on a 96 well plate were fixed with 4% paraformaldehyde and the neurofilament of the cell was labeled with anti-neurofilament 200 antibody (Sigma) specifically recognizing a neurofilament constituting nerve cell body and neurite and HRP conjugated goat anti-mouse IgG antibody (Wako Pure Chemical Industries, Ltd.). […] After the completion of coloring, the absorbance at 492 nm was measured and the measured value was taken as the amount of the stained neurofilament and used as an index for neuritogenesis (Taniwaki T., et al. Dev. Brain Res. (1995) 88, 109-166). The cells plated on an 8 well culture slide were fixed with 4% paraformaldehyde, a sample fixed with an anti-neurofilament 200 antibody (Sigma) was stained, and fluorescence labeled with Alexa Fluor 568 conjugated secondary antibody (Molecular probes). The fluorescence labeled cells were observed under a fluorescence microscope and the cell images were imported into a computer.

[2] = test system: cultured rabbit trigeminal nerve cells; test: Effect of Octreotide on axon extension of cultured rabbit trigeminal nerve cells (anti-neurofilament 200 immunostaining, image analysis); conditions: Octreotide 10 μM final concentration, 24 hr culture
From the text: Effect of Octreotide on Axon Extension of Cultured Rabbit Trigeminal Nerve Cells (In Vitro Test)
(§1) Japanese White Rabbits (2-3 days old) purchased from Fukusaki Rabbit Warren were used.
Octreotide (SMS 201-995, American Peptide Company, Inc.) was used.
The cell culture: Trigeminal nerve cells were isolated by reference to the report of Chan et al. (Kuan Y. Chan and Richard H. Haschke. Exp. Eye Res. 41: 687-699, 1985). To be specific, under ether anesthesia, after cardiac perfusion of rabbit with saline, the trigeminal ganglia was removed, and dispersed in nerve dispersion solution (SUMITOMO BAKELITE Co., Ltd.). The cells were counted and innoculated in an 8 well culture slide (BECTON DICKINSON) coated with polylysine. The cell number was about 3×10^3 cells per well, and the culture conditions were 5% CO2, 95% air, 37° C. […] Immunostaining: At 24 hr from culture, the cells were fixed with 4% paraformaldehyde at room temperature for 2 hr, and nerve cell, axon and dendrite were fluorescence stained with anti-neurofilament 200 antibody (NF, Anti-Neurofilament 200, Sigma) specifically recognizing a neurofilament constituting the nerve cell and neurite. The images of the stained cells were imported into a computer from the fluorescence microscope, and the effect of Octreotide on the neurite formation and axon extension was evaluated using an image analysis soft (MacSCOP, MITANI CO.). […]

[3] = test system: cultured rabbit trigeminal nerve cells; test: Nerve axon extension promoting action in cultured rabbit trigeminal nerve cells (phase contrast microscopy); conditions: NGF 1 μg/mL final concentration, 48 hr culture, compared to non-addition group
Procedure: Nerve Axon Extension Promoting Action in Cultured Rabbit Trigeminal Nerve Cells (In Vitro Experiment)
as §1
As a test substance, somatostatin (manufactured by CALBIOCHEM, Lot B33795) and NGF (NGF-7S, manufactured by Sigma) were used. The test substance was dissolved in phosphate buffer (PBS) to 100 μM somatostatin, 20 μg/mL NGF-7S. The prepared reagents were preserved at −80° C. and dissolved before use.
The trigeminal nerve cell was isolated according to the report of Chan et al. (Kuan Y. Chan and Richard H. Haschke. Exp. Eye Res. 41: 687-699, 1985). To be specific, under ether anesthesia, after cardiac perfusion of rabbit with saline, the trigeminal ganglia was removed, trigeminal ganglia was dispersed using a nerve dispersion solution (SUMITOMO BAKELITE Co., Ltd.), and the cells were plated in a 24-well plate (SUMITOMO BAKELITE Co., Ltd.) coated with polylysine/laminin. The number of cells was about 3000 cells per well and the culture conditions were 5% CO2, 95% air at 37° C. […]
The effect on the formation of neurite and the axon extension from trigeminal nerve cell by somatostatin and NGF were morphologically evaluated by the observation using a phase contrast microscope.

## CC(C)(C)OC(=O)C(CCCCN)NC(=O)C(Cc1c[nH]c2ccccc12)NC(=O)N1CCC(n2c(=O)[nH]c3ccccc32)CC1 (stereo not shown) [compound 1, t-butyl 6-amino-2-(3-(1H-indol-3-yl)-2-((4-(2-oxo-2,3-dihydrobenzoimidazol-1-yl)piperidine-1-carbonyl)amino)propionylamino)hexanoate]
[1]; final concentration 1 μM
  neuritogenic cells compared with the control group (fluorescence microscopic images): increase in the neuritogenic cells
  absorbance indicating the neurofilament amount of the cells (492 nm): 0.876

## C[C@@H](O)[C@@H]1NC(=O)[C@H](CCCCN)NC(=O)[C@@H](Cc2c[nH]c3ccccc23)NC(=O)[C@H](Cc2ccccc2)NC(=O)[C@@H](NC(=O)[C@H](N)Cc2ccccc2)CSSC[C@@H](C(=O)N[C@H](CO)[C@@H](C)O)NC1=O [Octreotide]
[2]
  neuritogenic cells compared to the control cell group (fluorescence microscopic images): neuritogenic cells increased
[2]; control group about 21%, n=3, p<0.05
  proportion (%) of neuritogenic cell to the total cell number: about 43%

## S=C(NCCCc1c[nH]cn1)NCCCN(Cc1ccc(Cl)c(Cl)c1)c1ccc(Br)cn1 [compound 2, 1-(3-(N-(5-bromopyridin-2-yl)-N-(3,4-dichlorobenzyl)amino)propyl)-3-(3-(1H-imidazol-4-yl)propyl)thiourea]
[1]; final concentration 0.1 μM
  neuritogenic cells compared with the control group (fluorescence microscopic images): increase in the neuritogenic cells
  absorbance indicating the neurofilament amount of the cells (492 nm): 0.850

B1: NGF: nerve growth factor (NGF-7S, manufactured by Sigma) (protein, UniProt P01139 122-241, looked up)
Beta-nerve growth factor: SSTHPVFHMGEFSVCDSVSVWVGDKTTATDIKGKEVTVLAEVNINNSVFRQYFFETKCRASNPVESGCRGIDSKHWNSYCTTTHTFVKALTTDEKQAAWRFIRIDTACVCVLSRKATRRG
modifications: 7S complex
[3]
  formation of neurite and axon extension from trigeminal nerve cell, morphological evaluation: clear nerve cell axon extension-promoting action was observed
